Source: patent US20090209474A1, “NOVEL USES FOR DRUGS TARGETING GLUTAMINE SYNTHETASE” (NEWTHERA, priority 2005, published 2009)
Entries after “also recorded” stand apart in the source; their conditions may differ. Read-outs that look alike come from different tables or passages of the source.

How the values were obtained:
[1] = test system: purified sheep brain GS; assay: Purified sheep brain GS activity (Meister's method, gamma-glutamylhydroxamate formation); type: biochemical
[2] = test system: Wistar rats; assay: Open field task in corticosterone-administered rats; type: in vivo; conditions: day 15, corticosterone 35 mg/kg s.c.; versus PCB and Control
[3] = test system: Wistar rats; assay: Forced swimming test in corticosterone-administered rats; type: in vivo
[4] = test system: CA3 pyramidal neurons; assay: Surface of CA3 pyramidal neurons (Golgi) in corticosterone-administered rats; type: in vivo, Wistar rats; conditions: 21 days
[5] = test system: glucocorticoid receptor (GR); assay: Brain glucocorticoid receptor expression by ELISA in corticosterone-administered rats; type: in vivo, Wistar rats; conditions: GF 0.1 and 3 mg/kg, MS 0.5, 15 and 45 mg/kg, tianeptine 0.5 mg/kg; versus PCB
[6] = Adrenal weight in corticosterone-administered rats; type: in vivo, Wistar rats; conditions: 21 days, versus PCB
[7] = Adrenal weight of rats administered methylprednisolone; type: in vivo, Wistar rats
Procedure: Wistar rats were administered during 21 days once a day with methyprednisolone (5 mg/kg i.p.) plus GF (0.001, 0.01, 0.1 mg/kg), NF (1 and 10 mg/kg) or vehicle (PCB; i.p). Twenty-four hours after the last administrations, they were euthanatized. A complete necropsy was performed and main organs weighted.

[8] = test system: Wistar rats; assay: PTZ-induced seizures; type: in vivo
[9] = target: brain GS (Mus musculus, UniProt P15105); conditions: i.p. 7 days
brain GS, sequence (P15105 2-373 limits assumed): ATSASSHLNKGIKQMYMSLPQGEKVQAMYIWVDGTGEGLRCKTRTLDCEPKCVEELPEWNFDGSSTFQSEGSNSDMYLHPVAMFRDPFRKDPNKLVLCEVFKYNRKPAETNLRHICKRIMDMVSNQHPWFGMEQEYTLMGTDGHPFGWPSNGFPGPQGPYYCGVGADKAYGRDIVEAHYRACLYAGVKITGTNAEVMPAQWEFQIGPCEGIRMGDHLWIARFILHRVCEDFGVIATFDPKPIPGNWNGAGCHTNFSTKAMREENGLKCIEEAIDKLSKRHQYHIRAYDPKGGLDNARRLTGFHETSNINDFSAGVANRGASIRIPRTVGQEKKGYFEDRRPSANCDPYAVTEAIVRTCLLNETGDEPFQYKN

[10] = target: T1, GS (Mus musculus, UniProt P15105); conditions: 24 h after single i.p.
T1 sequence (P15105 2-373 limits assumed): as above

[11] = target: T2, GS (Rattus norvegicus, UniProt P09606); conditions: for lung GS activity: versus PCB
T2 sequence (P09606 2-373 limits assumed): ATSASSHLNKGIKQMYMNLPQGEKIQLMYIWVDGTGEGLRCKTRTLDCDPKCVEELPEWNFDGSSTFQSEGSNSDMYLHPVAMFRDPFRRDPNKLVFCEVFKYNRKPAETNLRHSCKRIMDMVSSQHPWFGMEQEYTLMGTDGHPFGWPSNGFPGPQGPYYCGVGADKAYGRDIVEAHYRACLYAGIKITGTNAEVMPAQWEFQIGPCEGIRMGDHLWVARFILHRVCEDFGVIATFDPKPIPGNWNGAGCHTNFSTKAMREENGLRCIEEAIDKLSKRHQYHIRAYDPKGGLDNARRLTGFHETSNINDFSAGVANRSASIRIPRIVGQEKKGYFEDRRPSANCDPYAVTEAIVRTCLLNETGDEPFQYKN

[12] = test system: GS; conditions: rat, in vivo
[13] = target: T2, GS; conditions: GF 1 mg/kg, tianeptine 10 mg/kg, methyprednisolone 5 mg/kg i.p.
[14] = test system: GS; conditions: literature (Meister 1985; Eisenberg et al., 2000); cited from earlier work
[15] = test system: pathogenic mycobacteria; conditions: cited from earlier work
[16] = in vivo, cited from earlier work
[17] = test system: mice; conditions: cited from earlier work
[18] = test system: rats; conditions: rat, in vivo; cited from earlier work
[19] = test system: dogs; conditions: based on decreased body weight at higher doses; cited from earlier work
[20] = test system: rabbits; conditions: rabbit, in vivo; cited from earlier work
[21] = test system: rats; conditions: rat, in vivo; cited from earlier work; remark: listed apart in the source
[22] = test system: mice; conditions: cited from earlier work; remark: listed apart in the source
[23] = test system: rats; conditions: cited from earlier work
[24] = target: T1, GS; type: in vivo, BALB/c mice; set-up: from tissue; host or cells: mouse brain (whole brain, cortex, hippocampus, thalamus/hypothalamus); conditions: 24 h after single i.p.; NF 10 and 100 mg/kg, GF 1 mg/kg
Procedure: Cortex, hippocampi and thalamus/hypothalamus were carefully isolated immediately after euthanasia. Membranes were prepared and the activity of GS determined in these different structures (as mentioned above for the whole brain).

[25] = target: T2, GS; type: in vivo, Wistar rats; set-up: Wistar rat brain homogenates were incubated with naftazone; from tissue; host or cells: Wistar rat brain homogenate or membranes; in A19 also liver and lungs
[26] = GF 3 mg/kg, tianeptine 15 mg/kg
[27] = 21 days, versus PCB and Control

CP(=O)(O)CCC(N)C(=O)O (racemic) [GF, ammonium 4-[hydroxy (methyl)phosphinoyl]-DL-homoalaninate]
type of competition [1]: competitive with L-glutamine | effect on GS activity at “high” concentrations ([1]; in absence of 2βME): inhibit GS activity at “high” concentrations | “low concentrations” that activate GS activity ([1]; in absence of 2βME): 10^−4 to 10^−11 M | effect on GS subunit (monomer) activity ([1]; in presence of 2β-ME (DTT for tianeptine)): inhibit GS activity at “high” concentrations | resting time in the open field task [2]: higher | immobility in the forced swimming test ([3]; GF 0.1 mg/kg, tianeptine 0.5 mg/kg): clear decrease in immobility | immobility in the forced swimming test ([3]; day 19, corticosterone 35 mg/kg s.c., versus PCB and Control): comparable or lower | effects of corticosterone on CA3 pyramidal neurons ([4]; GF 15 mg/kg): failed to blunt the effects of corticosterone | effects of corticosterone on CA3 pyramidal neurons ([4]; GF 0.1 and 3 mg/kg): prevent in part the deleterious effects of corticosterone | brain GR expression [5]: higher | adrenal weight [6]: higher | methylprednisolone-induced adrenal atrophy ([7]; GF 0.001 mg/kg): fully prevented | adrenal weight ([7]; GF 0.001, 0.01, 0.1 mg/kg, NF 1 and 10 mg/kg, methyprednisolone 5 mg/kg i.p., 21 days, versus PCB): higher | dose relation of the effect on adrenal weight ([7]; rat, in vivo): non dose-dependent effect | seizure occurrence after PTZ administration ([8]; GF 0.5, 5, 25 mg/kg, tianeptine 1, 10, 50 mg/kg i.p. 1 h before PTZ 50 mg/kg i.p.): decreased seizure occurrence | dose relation of the effect on seizures ([8]; rat, in vivo): not dose-dependent | brain GS expression [9, 26]: increased also GS expression | whole brain GS activity [9, 26]: increase GS activity | dose relation of effects on GS activity and GS expression [9]: dose-dependent | whole brain GS activity at higher doses ([9]; doses above GF 3 mg/kg, tianeptine 15 mg/kg): decreased GS activity | GS activity in the hippocampus [10]: dose-dependently increased GS activity | GS activity in the thalamus/hypothalamus [10]: decreased GS activity | GS activity in the cortex ([10]; GF 0.1, 3, 15 mg/kg, tianeptine 0.5, 15, 45 mg/kg): no significant effect | lung GS activity ([11]; 21 days, most rats): decrease in lung GS activity | brain GS activity [11, 27]: dose-dependent decrease | liver GS activity [11, 27]: clear decrease | lung GS activity [11, 26]: remained in the same range | brain GS expression [12]: higher | GS activity in the cortex [13]: Trend to an Decrease | GS activity in the hippocampus [13]: Increase of GS Activity | GS activity in the thalamus/hypothalamus ([13]; 1 h and 24 h after last administration): Decreased GS Activity | nature of the binding to GS [14]: selective, irreversible GS ligand; also recorded: bind GS irreversibly | effect on mycobacterium growth [15]: only a very minor inhibitory effect | part of an oral dose eliminated in the urine ([16]; po): 10-15% | main metabolite found in urine and in faeces [16]: 3-[hydroxy(methyl)phosphinoyl] propionic acid | NOAEL ([17]; based upon increased plasma potassium at next highest dose): 80 ppm | NOAEL ([17]; females): 19 mg/kg bw/day | NOAEL ([17]; males): 17 mg/kg bw/day | dose levels with effects on kidney weight [18]: ≥ 0.52 mg/kg bw/day | NOAEL [19]: 4.5 mg/kg bw/day | NOAEL for maternal and embryo/fetal toxicity [20]: 6.3 mg/kg bw/day | teratogenicity [20]: not teratogenic | NOAEL for maternal and embryo/fetal toxicity [21]: 2.2 mg/kg bw/day | teratogenicity [21]: not teratogenic | NOAEL ([22]; increased mortality at higher dietary concentrations): 80 ppm | NOAEL ([22]; mouse, in vivo): 11 mg/kg bw/day | carcinogenicity ([22]; mouse, in vivo): not carcinogenic | NOAEL ([23]; increased kidney weight at 140 ppm): 40 ppm | NOAEL ([23]; rat, in vivo): 2.1 mg/kg bw/day | carcinogenicity ([23]; rat, in vivo): not carcinogenic | GS activity in the thalamus/hypothalamus [24]: decreased | GS activity in the cortex, hippocampus and thalamus/hypothalamus ([25]; one hour after PTZ administration): increased GS activity | dose relation of the effects on GS activity ([25]; rat, in vivo): not proportional to the dose
